4 compounds from BindingDB's records for doi:10.1016/j.bmcl.2006.09.026 (Mediquest Therapeutics, 2006) can be followed below.

In the assay the target is Transcription factor p65 (Human, UniProt Q04206). As to the kind of experiment: Inhibition of NF-kappaB in human HEK293 cells.
Transcription factor p65, sequence (Q04206 whole entry): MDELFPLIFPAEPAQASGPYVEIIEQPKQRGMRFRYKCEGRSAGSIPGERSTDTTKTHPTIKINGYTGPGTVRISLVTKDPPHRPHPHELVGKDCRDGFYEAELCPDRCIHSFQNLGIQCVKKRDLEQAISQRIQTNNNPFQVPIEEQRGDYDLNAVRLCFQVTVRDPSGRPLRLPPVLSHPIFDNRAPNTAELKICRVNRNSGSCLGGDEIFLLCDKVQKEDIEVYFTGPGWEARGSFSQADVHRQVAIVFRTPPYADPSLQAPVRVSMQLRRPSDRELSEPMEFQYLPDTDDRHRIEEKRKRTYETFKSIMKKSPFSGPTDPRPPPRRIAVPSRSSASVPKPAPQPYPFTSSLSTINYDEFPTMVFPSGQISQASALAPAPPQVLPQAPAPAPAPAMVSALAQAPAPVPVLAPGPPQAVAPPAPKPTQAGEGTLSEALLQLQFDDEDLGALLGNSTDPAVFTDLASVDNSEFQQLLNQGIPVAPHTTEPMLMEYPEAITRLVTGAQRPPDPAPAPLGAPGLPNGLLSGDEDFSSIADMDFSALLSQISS

For `CCCCCCCCCCCCCCCCCCS(=O)(=O)NCCCNCCCCNCCCN` [N1-octadecanylsulfonyl-1,14-diamino-5,10-diazabutadecane], the IC50 – broadly, the concentration at which inhibition is half-maximal – came out at 2100 nM.

Compound `CCCCCCCCCCS(=O)(=O)NCCCNCCCCNCCCN` [N-(3-(4-(3-aminopropylamino)butylamino)propyl)decane-1-sulfonamide] gave an IC50 of 310 nM.

`CCCCCCCCCCCCS(=O)(=O)NCCCNCCCCNCCCN` [N-(3-(4-(3-aminopropylamino)butylamino)propyl)dodecane-1-sulfonamide] yielded an IC50 of 340 nM.

In turn, `CCCCCCCCCCCCCCCCS(=O)(=O)NCCCNCCCCNCCCN` [N-(3-(4-(3-aminopropylamino)butylamino)propyl)hexadecane-1-sulfonamide] returned an IC50 of 230 nM.
